# According to patent US20100323950A1, “USE OF BETA-MELANOTROPIN AS A THERAPEUTIC AGENT, EG FOR THE TREATMENT OF AIDS OR ALZHEIMER” (priority 2007, published 2010):
# What was measured:
# in vitro = conditions: human, MRC-5 cells (human embryonal lung fibroblasts)
# Pseudomonas aeruginosa = conditions: 5 micrograms per ml
# [1] = Cytotoxicity (dye uptake cell viability) in HepG2-2.2.15 cells; conditions: human
# Streptococcus pneumoniae = conditions: 5 micrograms per ml
# MRSA = conditions: 5 micrograms per ml
compound,measurement,setting,value
CSCC[C@H](NC(=O)[C@H](CCCNC(=N)N)NC(=O)[C@H](Cc1ccc(O)cc1)NC(=O)[C@@H]1CCCN1C(=O)CNC(=O)[C@H](CCC(=O)O)NC(=O)[C@H](CC(=O)O)NC(=O)[C@H](CCCCN)NC(=O)[C@H](CCCCN)NC(=O)[C@H](CCC(=O)O)NC(=O)[C@H](C)N)C(=O)N[C@@H](CCC(=O)O)C(=O)N[C@@H](Cc1c[nH]cn1)C(=O)N[C@@H](Cc1ccccc1)C(=O)N[C@@H](CCCNC(=N)N)C(=O)N[C@@H](Cc1c[nH]c2ccccc12)C(=O)NCC(=O)N[C@@H](CO)C(=O)N1CCC[C@H]1C(=O)N1CCC[C@H]1C(=O)N[C@@H](CCCCN)C(=O)N[C@@H](CC(=O)O)C(=O)O [Beta MSH],viability at 144 h,in vitro,100%
same,% inhibition,Pseudomonas aeruginosa,0.0%
same,"viability at 144 h, 10 micrograms per ml",[1],100%
same,% inhibition,Streptococcus pneumoniae,0.0%
same,% inhibition,MRSA,0.0%
